Assays:
Experiment in all cases: Test C postemergence, plant response rating
Assay type in all cases: in vivo
[1] = system: crabgrass, large (large crabgrass, Digitaria sanguinalis); conditions: for Crabgrass, Large plant response rating: scale 0 to 100 (0 no effect, 100 complete control)
How it was run: (§1)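 Preemergence: seeds sown in loam–sand blend or silt loam and sprayed with test chemicals in a non-phytotoxic surfactant-containing solvent. Postemergence: potted plants at 2–18 cm (1–4-leaf stage) sprayed with the same formulation. After 13–15 d in greenhouse, visual rating versus controls on 0 (no effect) to 100 (complete control) scale.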

[2] = system: oilseed rape (Brassica napus); conditions: for Oilseed Rape plant response rating: scale 0 to 100 (0 no effect, 100 complete control)
How it was run: as §1

corn (Zea mays) = conditions: for Corn plant response rating: scale 0 to 100 (0 no effect, 100 complete control)
How it was run: as §1

[3] = system: waterhemp (common waterhemp, Amaranthus rudis); conditions: for Waterhemp plant response rating: 125 g ai/ha, scale 0 to 100 (0 no effect, 100 complete control)
How it was run: as §1

[4] = system: velvetleaf (Abutilon theophrasti); conditions: for Velvetleaf plant response rating: 125 g ai/ha, scale 0 to 100 (0 no effect, 100 complete control)
How it was run: as §1

[5] = system: ragweed (common ragweed, Ambrosia elatior); conditions: for Ragweed plant response rating: scale 0 to 100 (0 no effect, 100 complete control)
How it was run: as §1

[6] = system: barnyardgrass (Echinochloa crus-galli); conditions: for Plant response rating, Barnyardgrass: scale 0 to 100; for Barnyardgrass plant response rating: scale 0 to 100 (0 no effect, 100 complete control)
How it was run: as §1

[7] = system: lambsquarters (Chenopodium album); conditions: for Lambsquarters plant response rating: scale 0 to 100 (0 no effect, 100 complete control)
How it was run: as §1

soybean (Glycine max) = conditions: for Soybean plant response rating: scale 0 to 100 (0 no effect, 100 complete control)
How it was run: as §1

kochia (Kochia scoparia) = conditions: for Kochia plant response rating: scale 0 to 100 (0 no effect, 100 complete control)
How it was run: as §1

[8] = system: blackgrass (Alopecurus myosuroides); conditions: for Plant response rating, Blackgrass: scale 0 to 100; for Blackgrass plant response rating: scale 0 to 100 (0 no effect, 100 complete control)
How it was run: as §1

[9] = system: oat, wild (wild oat Avena fatua); conditions: for Oat, Wild plant response rating: scale 0 to 100 (0 no effect, 100 complete control)
How it was run: as §1

[10] = system: ryegrass, Italian (Italian ryegrass, Lolium multiflorum); conditions: for Ryegrass, Italian plant response rating: scale 0 to 100 (0 no effect, 100 complete control)
How it was run: as §1

[11] = system: galium (catchweed bedstraw, Galium aparine); conditions: for Galium plant response rating: scale 0 to 100 (0 no effect, 100 complete control)
How it was run: as §1

[12] = system: nutsedge, yellow (yellow nutsedge, Cyperus esculentus); conditions: for Nutsedge, Yellow plant response rating: scale 0 to 100 (0 no effect, 100 complete control)
How it was run: as §1

[13] = system: wheat (winter wheat, Triticum aestivum); conditions: for Wheat plant response rating: 125 g ai/ha, scale 0 to 100 (0 no effect, 100 complete control)
How it was run: as §1

O=C(CCCC(F)(F)F)c1c(Oc2ncc(Cl)cn2)cccc1C(F)(F)F [Compound 125]
60: Plant response rating, Soybean (soybean (Glycine max); 31 g ai/ha, scale 0 to 100)
98: Plant response rating, Lambsquarters ([7]; 31 g ai/ha, scale 0 to 100) | Kochia plant response rating (kochia (Kochia scoparia); 125 g ai/ha)
95: Oilseed Rape plant response rating ([2]; 125 g ai/ha) | Lambsquarters plant response rating ([7]; 62 g ai/ha) | Kochia plant response rating (kochia (Kochia scoparia); 62 g ai/ha)
70: Plant response rating, Lambsquarters ([7]; 16 g ai/ha, scale of 0 to 100) | Soybean plant response rating (soybean (Glycine max); 125 g ai/ha) | Plant response rating, Galium ([11]; 31 g ai/ha, scale 0 to 100)
55: Ragweed plant response rating ([5]; 125 g ai/ha)
35: Plant response rating, Velvetleaf ([4]; 31 g ai/ha, scale 0 to 100) | Plant response rating, Ragweed ([5]; 31 g ai/ha, scale 0 to 100)
80: Plant response rating, Oilseed Rape ([2]; 16 g ai/ha, scale of 0 to 100) | Plant response rating, Waterhemp ([3]; 31 g ai/ha, scale 0 to 100) | Galium plant response rating ([11]; 62 g ai/ha)
10: Plant response rating, Crabgrass, Large ([1]; 16 g ai/ha, scale of 0 to 100) | Plant response rating, Crabgrass, Large ([1]; 31 g ai/ha, scale 0 to 100) | Plant response rating, Corn (corn (Zea mays); 16 g ai/ha, scale of 0 to 100) | Plant response rating, Corn (corn (Zea mays); 31 g ai/ha, scale 0 to 100) | Barnyardgrass plant response rating ([6]; 125 g ai/ha) | Plant response rating, Blackgrass ([8]; 16 g ai/ha) | Plant response rating, Oat, Wild ([9]; 31 g ai/ha, scale 0 to 100) | Ryegrass, Italian plant response rating ([10]; 62 g ai/ha) | Nutsedge, Yellow plant response rating ([12]; 125 g ai/ha)
25: Plant response rating, Soybean (soybean (Glycine max); 16 g ai/ha, scale of 0 to 100) | Wheat plant response rating [13]
15: Crabgrass, Large plant response rating ([1]; 62 g ai/ha) | Corn plant response rating (corn (Zea mays); 62 g ai/ha) | Blackgrass plant response rating ([8]; 62 g ai/ha) | Oat, Wild plant response rating ([9]; 62 g ai/ha) | Oat, Wild plant response rating ([9]; 125 g ai/ha) | Ryegrass, Italian plant response rating ([10]; 125 g ai/ha)
90: Oilseed Rape plant response rating ([2]; 62 g ai/ha) | Waterhemp plant response rating [3] | Plant response rating, Kochia (kochia (Kochia scoparia); 31 g ai/ha, scale 0 to 100) | Galium plant response rating ([11]; 125 g ai/ha)
30: Velvetleaf plant response rating [4] | Blackgrass plant response rating ([8]; 125 g ai/ha)
5: Plant response rating, Ragweed ([5]; 16 g ai/ha, scale of 0 to 100) | Plant response rating, Barnyardgrass ([6]; 16 g ai/ha) | Plant response rating, Barnyardgrass ([6]; 31 g ai/ha) | Barnyardgrass plant response rating ([6]; 62 g ai/ha) | Plant response rating, Oat, Wild ([9]; 16 g ai/ha, scale of 0 to 100) | Plant response rating, Ryegrass, Italian ([10]; 16 g ai/ha, scale of 0 to 100) | Plant response rating, Ryegrass, Italian ([10]; 31 g ai/ha, scale 0 to 100) | Plant response rating, Nutsedge, Yellow ([12]; 16 g ai/ha, scale of 0 to 100) | Plant response rating, Nutsedge, Yellow ([12]; 31 g ai/ha, scale 0 to 100) | Nutsedge, Yellow plant response rating ([12]; 62 g ai/ha) | Plant response rating, Wheat ([13]; 16 g ai/ha, scale of 0 to 100) | Plant response rating, Wheat ([13]; 31 g ai/ha, scale 0 to 100)
45: Ragweed plant response rating ([5]; 62 g ai/ha)
85: Plant response rating, Oilseed Rape ([2]; 31 g ai/ha, scale 0 to 100) | Plant response rating, Kochia (kochia (Kochia scoparia); 16 g ai/ha, scale of 0 to 100)
75: Plant response rating, Waterhemp ([3]; 16 g ai/ha, scale of 0 to 100)
65: Soybean plant response rating (soybean (Glycine max); 62 g ai/ha) | Plant response rating, Galium ([11]; 16 g ai/ha, scale of 0 to 100)
20: Crabgrass, Large plant response rating ([1]; 125 g ai/ha) | Corn plant response rating (corn (Zea mays); 125 g ai/ha) | Plant response rating, Velvetleaf ([4]; 16 g ai/ha, scale of 0 to 100) | Plant response rating, Blackgrass ([8]; 31 g ai/ha)
100: Lambsquarters plant response rating ([7]; 125 g ai/ha)

CCCCC(=O)c1c(Oc2ncc(Cl)cn2)cccc1C(F)(F)F [Compound 130]
95: Oilseed Rape plant response rating ([2]; 62 g ai/ha) | Lambsquarters plant response rating ([7]; 125 g ai/ha) | Soybean plant response rating (soybean (Glycine max); 125 g ai/ha) | Kochia plant response rating (kochia (Kochia scoparia); 62 g ai/ha)
10: Plant response rating, Crabgrass, Large ([1]; 31 g ai/ha, scale 0 to 100) | Crabgrass, Large plant response rating ([1]; 62 g ai/ha) | Plant response rating, Corn (corn (Zea mays); 16 g ai/ha, scale of 0 to 100) | Barnyardgrass plant response rating ([6]; 62 g ai/ha) | Plant response rating, Oat, Wild ([9]; 31 g ai/ha, scale 0 to 100) | Plant response rating, Ryegrass, Italian ([10]; 31 g ai/ha, scale 0 to 100) | Ryegrass, Italian plant response rating ([10]; 62 g ai/ha) | Plant response rating, Wheat ([13]; 16 g ai/ha, scale of 0 to 100)
50: Ragweed plant response rating ([5]; 125 g ai/ha)
40: Plant response rating, Soybean (soybean (Glycine max); 16 g ai/ha, scale of 0 to 100)
65: Plant response rating, Waterhemp ([3]; 16 g ai/ha, scale of 0 to 100)
90: Plant response rating, Lambsquarters ([7]; 31 g ai/ha, scale 0 to 100)
80: Plant response rating, Kochia (kochia (Kochia scoparia); 16 g ai/ha, scale of 0 to 100) | Plant response rating, Galium ([11]; 31 g ai/ha, scale 0 to 100) | Galium plant response rating ([11]; 125 g ai/ha)
98: Oilseed Rape plant response rating ([2]; 125 g ai/ha) | Kochia plant response rating (kochia (Kochia scoparia); 125 g ai/ha)
15: Corn plant response rating (corn (Zea mays); 62 g ai/ha) | Oat, Wild plant response rating ([9]; 62 g ai/ha) | Oat, Wild plant response rating ([9]; 125 g ai/ha) | Ryegrass, Italian plant response rating ([10]; 125 g ai/ha)
25: Plant response rating, Velvetleaf ([4]; 16 g ai/ha, scale of 0 to 100) | Plant response rating, Ragweed ([5]; 16 g ai/ha, scale of 0 to 100)
55: Ragweed plant response rating ([5]; 62 g ai/ha) | Plant response rating, Soybean (soybean (Glycine max); 31 g ai/ha, scale 0 to 100)
70: Plant response rating, Oilseed Rape ([2]; 16 g ai/ha, scale of 0 to 100)
0: Plant response rating, Nutsedge, Yellow ([12]; 16 g ai/ha, scale of 0 to 100) | Plant response rating, Nutsedge, Yellow ([12]; 31 g ai/ha, scale 0 to 100)
20: Crabgrass, Large plant response rating ([1]; 125 g ai/ha) | Plant response rating, Corn (corn (Zea mays); 31 g ai/ha, scale 0 to 100) | Corn plant response rating (corn (Zea mays); 125 g ai/ha) | Barnyardgrass plant response rating ([6]; 125 g ai/ha) | Blackgrass plant response rating ([8]; 62 g ai/ha)
30: Blackgrass plant response rating ([8]; 125 g ai/ha) | Wheat plant response rating [13]
45: Plant response rating, Velvetleaf ([4]; 31 g ai/ha, scale 0 to 100) | Plant response rating, Ragweed ([5]; 31 g ai/ha, scale 0 to 100)
5: Plant response rating, Crabgrass, Large ([1]; 16 g ai/ha, scale of 0 to 100) | Plant response rating, Barnyardgrass ([6]; 16 g ai/ha) | Plant response rating, Barnyardgrass ([6]; 31 g ai/ha) | Plant response rating, Blackgrass ([8]; 16 g ai/ha) | Plant response rating, Blackgrass ([8]; 31 g ai/ha) | Plant response rating, Oat, Wild ([9]; 16 g ai/ha, scale of 0 to 100) | Plant response rating, Ryegrass, Italian ([10]; 16 g ai/ha, scale of 0 to 100) | Nutsedge, Yellow plant response rating ([12]; 62 g ai/ha) | Nutsedge, Yellow plant response rating ([12]; 125 g ai/ha) | Plant response rating, Wheat ([13]; 31 g ai/ha, scale 0 to 100)
85: Plant response rating, Oilseed Rape ([2]; 31 g ai/ha, scale 0 to 100) | Waterhemp plant response rating [3] | Lambsquarters plant response rating ([7]; 62 g ai/ha) | Plant response rating, Kochia (kochia (Kochia scoparia); 31 g ai/ha, scale 0 to 100) | Galium plant response rating ([11]; 62 g ai/ha)
75: Plant response rating, Waterhemp ([3]; 31 g ai/ha, scale 0 to 100) | Velvetleaf plant response rating [4] | Plant response rating, Lambsquarters ([7]; 16 g ai/ha, scale of 0 to 100) | Soybean plant response rating (soybean (Glycine max); 62 g ai/ha) | Plant response rating, Galium ([11]; 16 g ai/ha, scale of 0 to 100)

— patent publication US11053204B2, “Pyrimidinyloxy benzene derivatives as herbicides” (FMC Corporation, priority 2015, dated 2021)
